Measured values as given in patent US11053218B2, “3-(1-oxoisoindolin-2-yl)piperidine-2,6-dione derivatives and uses thereof” (Novartis AG, priority 2017, dated 2021).
Structures can show the parent of a compound that is named as a salt. Where two headings read alike, the source gives them in different places.

Legend:
Format in all cases: cell-based
[1] = biological target: IKZF2 (Homo sapiens, UniProt Q96SW2+Q9UKS7); test: Prolabel quantification of IKZF2 protein levels in 293GT cells
[2] = biological target: GSPT1 (Homo sapiens, UniProt P15170+Q96SW2); test: Prolabel quantification of GSPT1 protein levels in 293GT cells; conditions: Prolabel assay, read-out: GSPT1 EC50
Procedure: The Prolabel system from DiscoverX was used to develop high-throughput and quantitative assays to measure changes in IKZF1, IKZF2 and GSPT1 protein levels in response to compounds. The prolabel tag was derived from the alpha fragment of beta galactosidase and has the following protein sequence: mssnslavvlqrrdwenpgvtqlnrlaahppfaswrnseeartdrpsqqlrslnge. The complementary fragment of beta-galactosidase (from DiscoverX), is added to the prolabel tag to form an active beta galactosidase enzyme whose activity can be precisely measured. In this way, the levels of a fusion protein with the prolabel tag can be quantified in cell lysates.
Lentiviral vectors, based on the Invitrogen pLenti6.2/V5 DEST backbone, were constructed that placed the prolabel tag upstream of IKZF1, IKZF2 or GSPT1 and expressed the fusion protein from a CMV promoter.
To ensure moderate and consistent expression of the prolabel fusion proteins across all cells in the population, stable cell lines were constructed from cells expressing a single copy of the construct. Lentivirus packaged with the constructs was made using the Virapower kit from Invitrogen.
The levels of prolabel tagged fusion proteins in compound treated cell lines were measured as follows:
Day 1, Cells were diluted to 1.0×10^6 cells/ml in normal growth medium. 17.5 μL of cells were plated in each well of a solid white 384 well plate. Plates were incubated overnight in a 37° C. tissue culture incubator.
Day 2, Serial dilutions of compounds were made in 384 well plates from 10 mM stocks. 15 μL of DMSO was added to each well of a 384 well plate. In the first column 15 μL of stock compound was added. The solution was mixed and 15 μL was transferred to the next column. This was repeated until 20 two-fold dilutions were prepared. 2.5 μL of diluted compounds were transferred into 60 μL of cell culture medium in another 384 well plate, and mixed well. 2.5 μL of this mixture was added to the plated cells. The final DMSO concentration was 0.5% and the highest concentration of compound was 50 μM. Plates were incubated overnight (e.g., about 14 h, 18 h, or 24 h) in a 37° C. tissue culture incubator.
Day 3, Plates were removed from the incubator and allowed to equilibrate at rt for 30 minutes. Prolabel substrate (DiscoverX PathHunter Prolabel Detection Kit, User manual: 93-0180) was added as described by the manufacturers protocols. Plates were incubated at rt for three hours and luminescence was read using an Envision reader (Perkin Elmer) Data was analyzed and visualized using the Spotfire software package.

[3] = biological target: IKZF1 (Homo sapiens, UniProt Q13422+Q96SW2); test: Prolabel quantification of IKZF1 protein levels in 293GT cells; conditions: Prolabel assay, read-out: IKZF1 EC50
[4] = 24 h, 10 μM, 24 h, 293GT cells; read-out: IKZF2 % protein reduction at 10 μM, 24 h
[5] = Prolabel assay, 293GT cells; read-out: IKZF2 EC50
[6] = 10 μM, 24 h, 293GT cells; read-out: IKZF2 % protein reduction at 10 μM, 24 h
[7] = Prolabel assay in HEK293GT cells, bar graph

Chain of GSPT1 (P15170 whole entry, the tested form may be a part): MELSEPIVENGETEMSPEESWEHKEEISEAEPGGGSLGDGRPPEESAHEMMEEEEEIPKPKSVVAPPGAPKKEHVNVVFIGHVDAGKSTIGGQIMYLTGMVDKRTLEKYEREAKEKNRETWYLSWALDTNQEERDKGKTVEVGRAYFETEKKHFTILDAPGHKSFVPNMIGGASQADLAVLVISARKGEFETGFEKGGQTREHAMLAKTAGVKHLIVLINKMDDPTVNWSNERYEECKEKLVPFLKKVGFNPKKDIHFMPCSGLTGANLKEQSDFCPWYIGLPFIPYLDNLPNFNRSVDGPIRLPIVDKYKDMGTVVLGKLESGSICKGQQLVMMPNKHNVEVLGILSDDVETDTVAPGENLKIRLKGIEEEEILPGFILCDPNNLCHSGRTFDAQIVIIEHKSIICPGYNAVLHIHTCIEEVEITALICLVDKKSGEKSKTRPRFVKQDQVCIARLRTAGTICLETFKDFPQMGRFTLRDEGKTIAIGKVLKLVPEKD
Chain of GSPT1 (Q96SW2 whole entry, the tested form may be a part): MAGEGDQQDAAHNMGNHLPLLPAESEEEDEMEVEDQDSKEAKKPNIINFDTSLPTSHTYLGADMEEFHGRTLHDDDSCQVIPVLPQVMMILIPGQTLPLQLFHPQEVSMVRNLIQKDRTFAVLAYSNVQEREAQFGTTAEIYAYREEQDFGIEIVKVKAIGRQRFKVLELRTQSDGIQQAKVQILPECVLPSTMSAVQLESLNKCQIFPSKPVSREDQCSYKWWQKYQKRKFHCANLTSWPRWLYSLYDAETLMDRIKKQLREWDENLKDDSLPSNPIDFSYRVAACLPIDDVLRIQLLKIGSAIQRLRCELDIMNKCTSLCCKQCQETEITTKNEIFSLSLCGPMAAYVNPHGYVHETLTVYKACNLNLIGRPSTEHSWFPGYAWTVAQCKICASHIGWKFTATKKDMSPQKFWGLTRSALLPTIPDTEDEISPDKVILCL
Chain of GSPT1 (Q16531 whole entry partner, the tested form may be a part): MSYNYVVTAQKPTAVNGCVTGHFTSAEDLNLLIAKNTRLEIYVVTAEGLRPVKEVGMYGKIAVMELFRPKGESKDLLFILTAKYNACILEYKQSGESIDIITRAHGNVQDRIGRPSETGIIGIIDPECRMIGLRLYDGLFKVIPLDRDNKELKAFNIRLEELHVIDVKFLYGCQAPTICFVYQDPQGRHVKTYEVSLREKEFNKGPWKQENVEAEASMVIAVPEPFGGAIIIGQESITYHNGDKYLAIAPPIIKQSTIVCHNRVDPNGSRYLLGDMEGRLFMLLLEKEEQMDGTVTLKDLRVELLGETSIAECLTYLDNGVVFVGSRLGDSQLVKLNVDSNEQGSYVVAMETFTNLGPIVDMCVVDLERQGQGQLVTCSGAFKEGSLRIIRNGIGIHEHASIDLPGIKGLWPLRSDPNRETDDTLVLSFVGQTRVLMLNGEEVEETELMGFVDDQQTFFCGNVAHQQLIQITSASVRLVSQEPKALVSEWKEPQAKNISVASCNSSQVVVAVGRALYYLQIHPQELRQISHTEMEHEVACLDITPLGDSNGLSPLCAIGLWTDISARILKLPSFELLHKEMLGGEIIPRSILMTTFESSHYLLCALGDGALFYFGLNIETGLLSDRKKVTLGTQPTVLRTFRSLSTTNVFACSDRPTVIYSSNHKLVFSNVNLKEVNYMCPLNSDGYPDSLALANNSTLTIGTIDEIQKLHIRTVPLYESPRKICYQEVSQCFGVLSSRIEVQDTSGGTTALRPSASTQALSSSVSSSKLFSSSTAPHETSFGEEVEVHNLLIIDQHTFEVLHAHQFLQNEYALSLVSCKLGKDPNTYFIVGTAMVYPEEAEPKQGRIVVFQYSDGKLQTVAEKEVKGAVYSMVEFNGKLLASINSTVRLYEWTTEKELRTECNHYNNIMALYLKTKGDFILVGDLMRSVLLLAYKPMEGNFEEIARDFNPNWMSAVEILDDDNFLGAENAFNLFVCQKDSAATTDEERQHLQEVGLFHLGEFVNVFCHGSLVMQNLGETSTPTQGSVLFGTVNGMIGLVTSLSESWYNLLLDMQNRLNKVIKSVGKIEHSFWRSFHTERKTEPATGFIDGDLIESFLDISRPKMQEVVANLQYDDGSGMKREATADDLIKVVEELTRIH
Chain of IKZF1 (Q13422 whole entry): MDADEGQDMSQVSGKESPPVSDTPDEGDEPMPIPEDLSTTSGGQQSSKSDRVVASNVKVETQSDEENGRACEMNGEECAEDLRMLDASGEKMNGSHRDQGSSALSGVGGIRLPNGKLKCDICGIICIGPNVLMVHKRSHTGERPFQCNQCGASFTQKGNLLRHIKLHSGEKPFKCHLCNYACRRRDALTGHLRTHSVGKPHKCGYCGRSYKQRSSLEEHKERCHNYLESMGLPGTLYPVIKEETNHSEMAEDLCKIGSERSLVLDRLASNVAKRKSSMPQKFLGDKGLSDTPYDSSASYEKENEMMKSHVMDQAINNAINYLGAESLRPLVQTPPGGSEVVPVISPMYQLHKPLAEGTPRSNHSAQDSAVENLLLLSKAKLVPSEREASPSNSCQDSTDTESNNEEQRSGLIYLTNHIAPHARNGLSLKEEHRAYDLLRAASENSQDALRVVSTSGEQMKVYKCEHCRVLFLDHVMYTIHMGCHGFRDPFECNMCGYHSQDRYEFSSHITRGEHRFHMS
Chain of IKZF1 (Q96SW2 whole entry): as the sequence (Q96SW2 whole entry, the tested form may be a part) above
Chain of IKZF1 (Q16531 whole entry partner): as the sequence (Q16531 whole entry partner, the tested form may be a part) above
Chain of IKZF2 (Q9UKS7 whole entry): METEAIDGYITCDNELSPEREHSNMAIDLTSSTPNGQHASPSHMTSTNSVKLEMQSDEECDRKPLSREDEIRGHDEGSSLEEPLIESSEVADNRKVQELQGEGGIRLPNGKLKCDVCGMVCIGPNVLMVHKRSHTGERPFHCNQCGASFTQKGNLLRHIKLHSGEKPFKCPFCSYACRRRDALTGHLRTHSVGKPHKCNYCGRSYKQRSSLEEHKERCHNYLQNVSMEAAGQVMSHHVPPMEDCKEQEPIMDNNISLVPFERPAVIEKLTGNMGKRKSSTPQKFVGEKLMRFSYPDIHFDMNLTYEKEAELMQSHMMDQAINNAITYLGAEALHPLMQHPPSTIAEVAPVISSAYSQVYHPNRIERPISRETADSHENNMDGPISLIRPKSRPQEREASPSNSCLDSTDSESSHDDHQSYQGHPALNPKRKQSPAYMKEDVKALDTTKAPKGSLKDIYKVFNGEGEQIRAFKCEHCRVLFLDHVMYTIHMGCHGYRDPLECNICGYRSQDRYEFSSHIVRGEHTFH
Chain of IKZF2 (Q96SW2 whole entry): as the sequence (Q96SW2 whole entry, the tested form may be a part) above
Chain of IKZF2 (Q16531 whole entry partner): as the sequence (Q16531 whole entry partner, the tested form may be a part) above

SMILES	inhibition at 10 µM [1, 4] [%]	DC50 [1, 5] [µM]	DC50 [2] [µM]	DC50 [3] [µM]	IKZF2 protein levels as compared to the control (DMSO) [1, 7]	inhibition at 10 µM [1, 6] [%]
O=C1CCC(N2Cc3cc([C@@H]4CCCNCC4)ccc3C2=O)C(=O)N1 (single isomer, unassigned) [Compound I-166, 3-(5-(azepan-4-yl)-1-oxoisoindolin-2-yl)piperidine-2,6-dione]	25	–	> 50	> 50	–	–
O=C1CCC(N2Cc3cc(C4CCCNCC4)ccc3C2=O)C(=O)N1 (single isomer, unassigned) [Compound I-167, 3-(5-(azepan-4-yl)-1-oxoisoindolin-2-yl)piperidine-2,6-dione]	25	–	> 50	> 50	–	–
O=C1CCC(N2Cc3cc(C4CCN(CC5CCCCC5)CC4)ccc3C2=O)C(=O)N1 (stereo not shown) [Compound I-11, 3-(5-(1-(cyclohexylmethyl)piperidin-4-yl)-1-oxoisoindolin-2-yl)piperidine-2,6-dione]	65	0.013	> 50	> 50	–	–
N#Cc1ccc(CN2CCC(c3ccc4c(c3)CN(C3CCC(=O)NC3=O)C4=O)CC2)cc1 (stereo not shown) [Compound I-31, 3-(5-(1-(4-nitrilebenzyl)piperidin-4-yl)-1-oxoisoindolin-2-yl)piperidine-2,6-dione]	–	0.004	> 50	> 50	–	60
COc1ccc(CN2CCC(c3ccc4c(c3)CN(C3CCC(=O)NC3=O)C4=O)CC2)cc1 (stereo not shown) [Compound I-39, 3-(5-(1-(4-methoxybenzyl)piperidin-4-yl)-1-oxoisoindolin-2-yl)piperidine-2,6-dione]	–	–	> 50	> 50	–	45
O=C1CCC(N2Cc3cc(C4CCN(Cc5cccc6[nH]ncc56)CC4)ccc3C2=O)C(=O)N1 (stereo not shown) [Compound I-43, 3-(5-(1-((1H-indazol-4-yl)methyl)piperidin-4-yl)-1-oxoisoindolin-2-yl)piperidine-2,6-dione]	80	0.012	> 30	> 30	decreased	–
COc1ncc(CN2CCC(c3ccc4c(c3)CN(C3CCC(=O)NC3=O)C4=O)CC2)cn1 (stereo not shown) [Compound I-68, 3-(5-(1-((2-methoxypyrimidin-5-yl)methyl)piperidin-4-yl)-1-oxoisoindolin-2-yl)piperidine-2,6-dione]	50	0.003	> 30	> 50	decreased	–
COC(=O)c1coc(CN2CCC(c3ccc4c(c3)CN(C3CCC(=O)NC3=O)C4=O)CC2)n1 (stereo not shown) [Compound I-254, methyl 2-((4-(2-(2,6-dioxopiperidin-3-yl)-1-oxoisoindolin-5-yl)piperidin-1-yl)methyl)oxazole-4-carboxylate]	40	0.68	–	> 30	–	–
O=C1CCC(N2Cc3cc(C4CCN(Cc5ccc(OCc6ccccn6)cc5)CC4)ccc3C2=O)C(=O)N1 (stereo not shown) [Compound I-255, 3-(1-oxo-5-(1-(4-(pyridin-2-ylmethoxy)benzyl)piperidin-4-yl)isoindolin-2-yl)piperidine-2,6-dione]	60	0.049	–	> 30	–	–
O=C1CCC(N2Cc3cc(C4CCN(Cc5ccc6[nH]c(=O)[nH]c6c5)CC4)ccc3C2=O)C(=O)N1 (stereo not shown) [Compound I-259, 3-(1-oxo-5-(1-((2-oxo-2,3-dihydro-1H-benzo[d]imidazol-5-yl)methyl)piperidin-4-yl)isoindolin-2-yl)piperidine-2,6-dione]	60	1.3	–	> 30	–	–
O=C1CCC(N2Cc3cc(C4C[C@H]5CC[C@@H](C4)N5Cc4ccccc4)ccc3C2=O)C(=O)N1 (stereo partly shown) [Compound I-265, 3-(5-(8-benzyl-8-azabicyclo[3.2.1]octan-3-yl)-1-oxoisoindolin-2-yl)piperidine-2,6-dione HC(O)OH salt]	70	0.005	–	> 50	–	–
O=C1CCC(N2Cc3cc(C4=CCCNC4)ccc3C2=O)C(=O)N1 (stereo not shown) [Compound I-282, 3-(1-oxo-5-(1,2,5,6-tetrahydropyridin-3-yl)isoindolin-2-yl)piperidine-2,6-dione]	0	> 30	–	> 30	–	–
CC(C)Oc1ccc(CN2CCC(c3ccc4c(c3)CN(C3CCC(=O)NC3=O)C4=O)CC2)cn1 (stereo not shown) [Compound I-285, 3-(5-(1-((6-isopropoxypyridin-3-yl)methyl)piperidin-4-yl)-1-oxoisoindolin-2-yl)piperidine-2,6-dione]	70	0.012	–	> 30	–	–
CC(C)n1nccc1CN1CCC(c2ccc3c(c2)CN(C2CCC(=O)NC2=O)C3=O)CC1 (stereo not shown) [Compound I-289, 3-(5-(1-((1-isopropyl-1H-pyrazol-5-yl)methyl)piperidin-4-yl)-1-oxoisoindolin-2-yl)piperidine-2,6-dione]	60	0.076	–	> 30	–	–
O=C1CCC(N2Cc3cc(C4CCN(Cc5ccns5)CC4)ccc3C2=O)C(=O)N1 (stereo not shown) [Compound I-290, 3-(5-(1-(isothiazol-5-ylmethyl)piperidin-4-yl)-1-oxoisoindolin-2-yl)piperidine-2,6-dione]	60	0.49	–	> 30	–	–
CC(C)Oc1cccc(CN2CCC(c3ccc4c(c3)CN(C3CCC(=O)NC3=O)C4=O)CC2)n1 (stereo not shown) [Compound I-301, 3-(5-(1-((6-isopropoxypyridin-2-yl)methyl)piperidin-4-yl)-1-oxoisoindolin-2-yl)piperidine-2,6-dione]	60	0.14	–	0.32	–	–

The next lines start with results.

inhibition at 10 µM [1, 4] [%]	DC50 [1, 5] [µM]	DC50 [2] [µM]	DC50 [3] [µM]	IKZF2 protein levels as compared to the control (DMSO) [1, 7]	SMILES	inhibition at 10 µM [1, 6] [%]
75	0.007	> 30	> 50	–	CC(c1ccccc1)N1CCC(c2ccc3c(c2)CN(C2CCC(=O)NC2=O)C3=O)CC1 (racemic) [Compound I-62, 3-(1-oxo-5-(1-(1-phenylethyl)piperidin-4-yl)isoindolin-2-yl)piperidine-2,6-dione]	–
75	0.017	> 30	> 30	–	N#Cc1cccc(CN2CCC(c3ccc4c(c3)CN(C3CCC(=O)NC3=O)C4=O)CC2)c1 (stereo not shown) [Compound I-36, 3-((4-(2-(2,6-dioxopiperidin-3-yl)-1-oxoisoindolin-5-yl)piperidin-1-yl)methyl)benzonitrile]	–
80	0.031	> 30	> 30	–	O=C1CCC(N2Cc3cc(C4CCN(Cc5cccnc5)CC4)ccc3C2=O)C(=O)N1 (stereo not shown) [Compound I-59, 3-(1-oxo-5-(1-(pyridin-3-ylmethyl)piperidin-4-yl)isoindolin-2-yl)piperidine-2,6-dione]	–
75	0.025	> 30	> 30	–	O=C1CCC(N2Cc3cc(C4CCN(Cc5ccc(F)c(F)c5)CC4)ccc3C2=O)C(=O)N1 (stereo not shown) [Compound I-64, 3-(5-(1-(3,4-difluorobenzyl)piperidin-4-yl)-1-oxoisoindolin-2-yl)piperidine-2,6-dione]	–
20	> 30	–	> 30	–	O=C1CCC(N2Cc3cc(C4CCN(Cc5ccccc5)C4)ccc3C2=O)C(=O)N1 (stereo not shown) [Compound I-260, 3-(5-(1-benzylpyrrolidin-3-yl)-1-oxoisoindolin-2-yl)piperidine-2,6-dione HC(O)OH Salt]	–
40	0.72	–	> 30	–	O=C1CCC(N2Cc3cc(C4CCN(Cc5ccnn5-c5ccccc5)CC4)ccc3C2=O)C(=O)N1 (stereo not shown) [Compound I-286, 3-(1-oxo-5-(1-((1-phenyl-1H-pyrazol-5-yl)methyl)piperidin-4-yl)isoindolin-2-yl)piperidine-2,6-dione]	–
70	0.018	–	> 30	–	CCOc1ccc(CN2CCC(c3ccc4c(c3)CN(C3CCC(=O)NC3=O)C4=O)CC2)cc1 (stereo not shown) [Compound I-287, 3-(5-(1-(4-ethoxybenzyl)piperidin-4-yl)-1-oxoisoindolin-2-yl)piperidine-2,6-dione]	–
80	0.012	–	> 30	–	O=C1CCC(N2Cc3cc(C4CCN(Cc5cnn(-c6ccccc6)c5)CC4)ccc3C2=O)C(=O)N1 (stereo not shown) [Compound I-288, 3-(1-oxo-5-(1-((1-phenyl-1H-pyrazol-4-yl)methyl)piperidin-4-yl)isoindolin-2-yl)piperidine-2,6-dione]	–
